Reference: patent US20090023773A1, “COMPOSITIONS AND METHODS FOR MODULATING GATED ION CHANNELS” (PainCeptor Pharma Corporation, priority 2007, published 2009)

Key:
[1] = tested on: chemically-induced spontaneous pain evoked by intraplantar injection of formalin; assay: Formalin test, model of acute tonic pain (Example 7); type: in vivo; conditions: rat; SC, 10 and 300 μmol/kg, 30 min prior to formalin; FIG. 3A
Protocol: Male Sprague-Dawley rats are housed together in groups of three animals under standard conditions with unrestricted access to food and water. All experiments are conducted according to the ethical guidelines for investigations of experimental pain in conscious animals (Zimmerman, 1983).
Assessment of formalin-induced flinching behavior in normal, uninjured rats (body weight 200-300 g) is made after formalin (2.5% in saline, 50-100 μl, s.c.) is injected into the plantar surface of the hindpaw using a 27 G needle. Rats are pretreated with test compounds either administered intravenously (IV), by subcutaneous injection (SC) or by orally (PO).
Nociceptive behavior is determined manually every 5 min by measuring the amount of time spent in each of four behavioral categories: 0, treatment of the injected hindpaw is indistinguishable from that of the contralateral paw; 1, the injected paw has little or no weight placed on it; 2, the injected paw is elevated and is not in contact with any surface; 3, the injected paw is licked, bitten, or shaken. A weighted nociceptive score, ranging from 0 to 3 is calculated by multiplying the time spent in each category by the category weight, summing these products, and dividing by the total time for each 5 min block of time. (Coderre et al., Pain 1993; 54: 43). On the basis of the resulting response patterns, […] of nociceptive behavior are identified and scored: first phase (P1; 0-5 min), interphase (Int; 6-15 min), second phase (P2; […]), phase 2A (P2A; 16-40 min) and phase 2B (P2B; 41-60 min).
Statistical analysis is performed using the Prism™ 4.01 software package (GraphPad, San Diego, Calif., USA). The difference in response levels between treatment groups and control vehicle group is analyzed using an ANOVA followed by Bonferroni's method for post-hoc pair-wise comparisons. A p value <0.05 is considered to be significant.

[2] = target: T1, recombinant homomeric hASIC1a channels (Homo sapiens, UniProt P78348); assay: Two-electrode voltage clamp in Xenopus laevis oocytes expressing gated ion channels (Example 4); type: cell-based; conditions: for IC50: Table 1, generated using oocytes as in Example 4; for reduction in the current evoked by a mild pH stimulation: acid-induced inward currents in oocytes injected with hASIC1a cDNA, FIGS. 2A-2C
T1 construct: expressed in transfected cells; host or cells: Xenopus laevis oocytes (nuclear microinjection of expression vector such as pcDNA3)
T1 sequence (P78348 1-528): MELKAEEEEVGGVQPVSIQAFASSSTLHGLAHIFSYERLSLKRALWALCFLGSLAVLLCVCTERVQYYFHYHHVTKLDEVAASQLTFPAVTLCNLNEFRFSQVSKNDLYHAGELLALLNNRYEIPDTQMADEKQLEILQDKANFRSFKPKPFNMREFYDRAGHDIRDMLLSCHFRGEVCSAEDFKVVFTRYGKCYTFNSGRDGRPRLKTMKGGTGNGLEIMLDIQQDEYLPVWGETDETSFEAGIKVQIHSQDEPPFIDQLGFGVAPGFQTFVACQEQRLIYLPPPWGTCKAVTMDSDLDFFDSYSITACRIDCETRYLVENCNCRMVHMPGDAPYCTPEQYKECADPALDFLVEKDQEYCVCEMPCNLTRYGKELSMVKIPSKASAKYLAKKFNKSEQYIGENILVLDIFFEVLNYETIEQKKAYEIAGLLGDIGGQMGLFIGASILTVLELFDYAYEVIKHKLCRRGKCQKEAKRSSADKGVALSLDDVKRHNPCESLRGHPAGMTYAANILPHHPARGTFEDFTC

[3] = tested on: acute paw inflammation caused by intraplantar injection of λ-carrageenan; assay: Carrageenan model for pain (Example 8); type: in vivo; conditions: rat; 120 mg/kg PO, 30 min prior to carrageenan; 4 h post-carrageenan
Protocol: Acute inflammatory hyperalgesia is induced in rats by unilateral injection of 150 μl of a 3% solution of λ-carrageenan into the plantar surface of the left hind paw 3-5 hours prior to testing. Thermal hyperalgesia, mechanical allodynia, mechanical hyperalgesia, weight bearing asymmetry and paw inflammation were determined. Rats are pretreated with test compounds either administered intravenously (IV), by subcutaneous injection (SC) or by oral gavage (PO).
Thermal nociceptive thresholds are determined according to the method described elsewhere (Hargreaves et al., 1988). Briefly, through the glass surface, a radiant heat source (8V, 50 W projector bulb) is focused onto the plantar surface of the hind paw. The rat's paw-withdrawal latency to this stimulus is recorded to the nearest 0.1 s. Each latency score is an average of three trials, which are separated by at least 5 min. In all rats, both the injured and uninjured hind paws are similarly tested, allowing direct comparisons between inflamed and non-inflamed paws. […]
Mechanical hyperalgesia is determined by measuring the difference of withdrawal thresholds in response to increasing pressure in the inflamed vs contralateral paw using the Randall-Sellito Paw pressure meter (IITC Life Science) (Randall L O and Sellito J J., 1957). Briefly, rats are held in a contention jacket suspended by a stand and allowed to acclimate for 10 min. Then the tips of the paw pressure applicator are positioned close to the middle of the plantar and the dorsal area of the paw, avoiding the saphenous nerve innervations and an increasing pressure is applied until the rat removes it. Measures are performed in triplicate for each paw by alternating each paw with an interval of at least 1 min to avoid sensitization. […]
Carrageenan induced paw oedema is measured with a plethysmometer (IITC Life Science). Briefly, a mark is made on the ankles of the rat and the ipsi and contralateral paw are submerged 3 times into water up to the mark in order to determine the paw volume by calculation of water displacement.

hASIC1a = target: T2, hASIC1a (Homo sapiens, UniProt P78348); assay: Fluorescent calcium dye (Fluo-4-NW) assay in cells expressing hASIC1a (Example 1); type: cell-based; conditions: CHO cells stably expressing hASIC1a, mild acidic buffer, increasing concentrations; FIGS. 1A-1C
T2 construct: expressed in transfected cells
T2 sequence (P78348 1-528): T1 sequence (P78348 1-528)
Protocol: ASIC1a expressing CHO cells are grown in culture medium (DMEM with 10% FBS), in polystyrene culture flasks ([…]) at 37° C. in a humidified atmosphere of 5% CO2. Confluency of cells should be 70-90% on day of plating. Cells are rinsed with 10 ml of PBS and cells are re-suspended by addition of culture medium and trituration with a 25 ml pipette. The cells are seeded at a density of approximately 10^4 cells/ml (50 μl/well and then brought to a total volume of 150 μl/well with culture medium, following 30 minutes incubation) in black-walled, clear bottom, 96-well plates pre-treated with poly-D-lysine (from BD Bioscience). Plated cells were allowed to proliferate for 48-72 h before loading with dye. Fluo-4-NW (500 μg, DiscoveRX) is dissolved in 110 μl DMSO. The Fluo-4-NW stock solution (1000×) is diluted with the assay buffer. A water soluble stock solution (100×) of probenicid (DiscoveRX) and a stock solution (1000×) of pluronic acid (P-127, Molecular Probes) are also added in the loading buffer containing Fluo-4NW dye. The culture medium is aspirated from the wells, and 100 μl of the Fluo-4-NW loading solution is added to each well. The cells are incubated at 37° C. for 30 min. followed by 30 min. incubation at room temperature. The assay buffer contains 90 mM NaCl, 5 mM KCl, 4 mM CaCl2, 0.8 mM MgSO4, 50 mM NMDG, 5 mM Glucose-D, 10 mM HEPES, pH 7.4. After the loading time, the loading buffer is not removed and the fluorescence is measured in FlexStation™ (Molecular Devices, USA), or any other suitable equipment known to the skilled in the art. Temperature: 25° C. First addition: 50 μl test solution at a rate of 26 μl/sec and a starting height of 125 μl. […] Reading intervals: pre-incubation—120 sec. antagonist phase, addition of MES at 145 sec. and reading time with agonist 100 sec (total run time of 240 sec.). Fluorescence obtained after stimulation is corrected for the mean basal fluorescence (in modified Assay Buffer). […] Gated-channel activity was determined by measuring intracellular calcium variation using a fluorescent calcium dye (Fluo-4-NW).

SMILES	pain intensity as evaluated by the licking behavior [1]	IC50 [2] [µM]	reduction in the current evoked by a mild pH stimulation [2]	mechanical hyperalgesia [3]	size of the inflammation [3]	thermal hyperalgesia [3]	inhibition of acid-induced hASIC1a activity (intracellular calcium variation) (hASIC1a)
Cc1cc(OC2CCN(Cc3ccccc3C(=O)O)CC2)c2cccc(F)c2n1 [Compound 1]	dose-dependent reduction	0.1 to 10	clear dose-dependent reduction	reversed	reduced	reversed	dose-dependently inhibited
Cc1cc(OC2CCN(Cc3ccccc3F)C(C)C2)c2cccc(F)c2n1 (stereo not shown) [Compound 6, 8-Fluoro-4-[1-(2-fluoro-benzyl)-2-methyl-piperidin-4-yloxy]-2-methyl-quinoline]	–	0.1 to 10	clear dose-dependent reduction	–	–	–	dose-dependently inhibited
